According to patent publication US20220298579A1, “COMPOSITIONS AND METHODS FOR PREDICTING SUSCEPTIBILITY OF CANCERS TO SYNTHETIC-LETHAL THERAPIES” (University of Florida Research Foundation, Inc., priority 2019, published 2022):

Assays:
[1] = tested on: LCL derived from a healthy subject; assay: DR-GFP reporter assay of HR-mediated DSB repair in LCL; type: cell-based, human; settings: increasing concentrations of AG490 (25 μM, 50 μM) added 18 h after DR-GFP + ISce1 transfection, harvested after another 30 h
Protocol: (§1) FIGS. 2A to 2O show STAT3 restricts HR repair through Chk1 in oncovirus-transformed cells. FIGS. 2A to 2K show LCL derived from a healthy subject (FIGS. 2A-2E, 2K) and EBV-positive HH514-16 Burkitt lymphoma (BL) cells (FIGS. 2F-2J, 2K) were transfected with DR-GFP plasmid (FIGS. 2A-2D, 2F-2I) and empty vector pCAGGS (FIGS. 2A, 2F) or ISce1 plasmid (FIGS. 2B-2D, 2G-2I), treated with 25 μM (FIGS. 2C, 2H) or 50 μM (FIGS. 2D, 2I) AG490 (a selective STAT3 inhibitor) after 18 h, and harvested after another 30 h for analysis of GFP-positive cells by flow cytometry (FIGS. 2A-2D, 2F-2I) and immunoblotting for phospho(p)STAT3 and β-actin (FIG. 2K). LCL (FIG. 2E) and BL cells (FIG. 2J) were transfected in parallel with pEGFP to monitor transfection efficiency. […]
(§2) For assessment of cell-cycle distribution, cells were fixed, permeabilized, and stained with anti-EBNA2 antibody and 50 μg/ml propidium iodide supplemented with 1 μg/ml RNase A, as previously described (Hill, E. R. et al. J Virol 87:11438-11446 (2013)). […] Data were acquired using a FACS Calibur and analyzed using FlowJo software. […]

[2] = tested on: EBV-positive HH514-16 Burkitt lymphoma (BL) cells; assay: DR-GFP reporter assay of HR-mediated DSB repair in BL cells; type: cell-based, human; settings: increasing concentrations of AG490 (25 μM, 50 μM) added 18 h after DR-GFP + ISce1 transfection, harvested after another 30 h; HH514-16 BL cells
Protocol: as §1, §2

[3] = tested on: EBV-infected B-cell lines; settings: 50 μM AG490; previously demonstrated (Koganti et al. 2014); cited from earlier work
STAT3 phosphorylation = settings: Janus kinase inhibitor; literature (Koganti 2014; Meydan 1996); cited from earlier work
[4] = tested on: LCL derived from healthy subjects (EBV-transformed cells); assay: Growth of LCL in the presence of Olaparib (live cell enumeration); type: cell-based, human; settings: Olaparib used alone, added at time 0 and every 3-4 days thereafter; all LCL (3 healthy subjects)
From the text: (§3) FIGS. 3A-3F show LCL derived from 3 healthy subjects (FIGS. 3A-3C) and 3 EBV^+ BL cell lines (HH514-16, Akata, and Raji; FIGS. 3D-3F) grown in the presence of Olaparib (added at time 0 and every 3-4 days thereafter) and enumerated for live cells on indicated days. FIGS. 3G-3N show LCL (FIGS. 3G-3J) and HH514-16 BL cells (FIGS. 3K-3N) transfected with DR-GFP plasmid (FIGS. 3G, 3H, 3K, 3L) and empty vector pCAGGS (FIGS. 3G, 3K) or ISce1 plasmid (FIGS. 3H, 3L) versus EJ2 plasmid (FIGS. 3I, 3J, 3M, 3N) and pCAGGS (FIGS. 3I, 3M) or ISce1 plasmid (FIGS. 3J, 3N) and harvested after 48 h for analysis of GFP-positive cells by flow cytometry. Numbers in plots indicate percent GFP-positive cells. Experiments were performed 3 times.
(§4) Newly-infected B cells and previously established EBV-LCL were grown in culture using conditions described (Koganti, S., et al. J Virol 88:516-524 (2014)). For experiments using AG490 and Olaparib, chemicals were added to cultures at time 0. For experiments using Olaparib, the drug was supplemented at the initial concentration every fourth day. For experiments using Bleomycin, the drug was added for an hour, following which cells were washed and placed back in culture.

[5] = tested on: EBV+ BL cell lines (HH514-16, Akata, and Raji); assay: Growth of EBV+ BL cell lines in the presence of Olaparib (live cell enumeration); type: cell-based, human; settings: Olaparib used alone, effect more pronounced than on LCL
From the text: as §3, §4

Row | SMILES | percentages of GFP+ cells (HR repair competent) [1] | percentages of GFP+ cells (HR repair competent) [2] | toxicity to EBV-infected B-cell lines [3] | inhibition of STAT3 phosphorylation (STAT3 phosphorylation) | reduction in growth [4] [%] | sensitivity to PARP inhibition (growth) [5]
1 | N#C/C(=C/c1ccc(O)c(O)c1)C(=O)NCc1ccccc1 [AG490] | increased | increased | minimally toxic | selectively inhibit STAT3 phosphorylation |  | 
2 | O=C(c1cc(Cc2n[nH]c(=O)c3ccccc23)ccc1F)N1CCN(C(=O)C2CC2)CC1 [Olaparib] |  |  |  |  | > 50 | exquisite sensitivity
